Measurements reported in patent US7223733B2, “Modulation of TRIP-Br function and method of treating proliferative disorders” (National University of Singapore, priority 2004, dated 2007).
Where no end group is shown, it is not given here.

How the values were obtained:
[1] = test system: KRIP-1/TRIP-Br PHD-bromodomain interaction; experiment: Immunoprecipitation assay of GAL4-KRIP-1/TRIP-Br complex formation (in vitro translated proteins); format: binding; settings: 25 μM decoy peptides pre-incubated with GAL4-KRIP-1
Chain of KRIP-1/TRIP-Br PHD-bromodomain interaction (Q62318 621-811 limits assumed): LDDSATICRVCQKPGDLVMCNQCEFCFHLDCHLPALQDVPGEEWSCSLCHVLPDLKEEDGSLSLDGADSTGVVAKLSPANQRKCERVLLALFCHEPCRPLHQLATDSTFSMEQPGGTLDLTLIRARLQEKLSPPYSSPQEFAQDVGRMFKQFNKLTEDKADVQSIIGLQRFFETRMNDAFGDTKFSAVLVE
Procedure: Preparation of proteins by in vitro translation. In vitro translation (IVT) products were synthesized from pcDNA3/TRIP-Br1, pcDNA3/TRIP-Br2 and pBlueScript/GAL4-KRIP-1 using the TNT T7 coupled reticulocyte lysate system (Promega). The in vitro translation reactions were carried out in a total reaction volume of 50 μl by incubating 1.0 μg of the indicated DNA template in nuclease-free water with 30 μl of TNT Quick master mix in the presence of [^35S]-methionine (Met) at 30° C. for 90 minutes.
Immunoprecipitation assay (IP). The binding reactions for IP were performed by incubating 1.5 μl [^35S]-Met labeled GAL4 or GAL4-KRIP-1 IVT products with 3 μl [^35S]-Met labeled TRIP-Br1 or TRIP-Br2 IVT products in 1×IP buffer (Hsu, S. I. H., et al. EMBO J. 20, 2273-2285 (2001)) at 4° C. for 1 h. For the analysis of decoy peptide-mediated blocking activity, the GAL4-KRIP-1 IVT product was pre-incubated with 25 μM decoy peptides at 4° C. for 30 minutes prior to addition of full-length TRIP-Br1 or TRIP-Br2 IVT products. Protein complexes precipitated using agarose-conjugated anti-GAL4 antibody were resolved by SDS-PAGE and then processed for autoradiography.
FIG. 1: TRIP-Br decoy peptides antagonize KRIP-1/TRIP-Br PHD-bromodomain interactions. […] GAL4-KRIP-1 was specifically immunoprecipitated by the agarose-conjugated anti-GAL4 antibody (Lanes 3-5 & 7–10) but not by the non-specific control anti-cyclin E antibody (Lane 6); (B) Antagonism of PHD-bromodomain interactions in vivo. U2OS cells were transiently transfected with 0.4 μg of the indicated GAL4 expression constructs and 1.2 μg of pMT3A/KRIP-1, along with 0.4 μg of the minimal luciferase reporter pG5-GL3 and 0.1 μg of the control reporter pCMV/β-gal. The transfected cells were exposed to either vehicle (0.5% DMSO) or 50 μM of the indicated decoy peptides prior to harvesting for sequential assay of luciferase and galactosidase activity. Fold activation refers to luciferase activity normalized to β-galactosidase activity, and is expressed relative to the activity observed with transfection of the reporter alone. […]

[2] = test system: minimal luciferase reporter (pGL3-TATA-Luc); experiment: TATA-containing minimal luciferase reporter assay in U2OS cells; format: cell-based, human; settings: 50 μM, 5 h
Procedure: DNA Transfection and Sequential β-Galactosidase/Luciferase Assay. For luciferase reporter assays, U2OS cells were cultured in 6-well dishes and transfected 24 h later with various reporter plasmids by the calcium precipitation method as previously described (Martin, K., et al. Nature 375, 691-694 (1995)). 24 h following precipitate removal, cells were exposed for 5 h to either vehicle (0.5% DMSO) or 50 μM of decoy peptide, prior to harvesting. Cells were scraped in 200 μl of lysis buffer and a single 10 μl aliquot of lysate was immediately used for sequential measurement of β-galactosidase and luciferase activity using the Dual Light System (Tropix). For protein overexpression experiments, U2OS cells were cultured in 6-well plates at a density of 1×10^5 cells/well and transfected 24 h later with Superfect reagent (QIAGEN).
(§1) FIG. 3: Analysis of E2F-responsive transcription in U2OS cells in response to decoy peptide treatment. (A) β-galactosidase/Luciferase assay of U2OS cells co-transfected with 0.1 μg of pCMV/β-galactosidase and 7.5 μg of the indicated luciferase reporter plasmids. Promoter activity of vehicle-treated samples was normalized to 100% and the activities of the peptide-treated samples were expressed relative to the vehicle-treated control. Values represent the average +/− standard deviation of at least two independent experiments; (B) Semi-quantitative RT-PCR analysis on total RNA for dhfr, cyclin-E, cyclin A2, PCNA, DNA Pola and cdc2 expression in U2OS cells exposed for 16 h to either vehicle (0.5% DMSO) or 50 μM of the indicated decoy peptides. H-actin was included as an internal control.
The PHD-bromodomain-interacting function of TRIP-Br proteins co-regulate E2F-dependent transcriptional activity in vivo. […] U2OS cells were chosen for this assay because they express functional E2F-1, DP-1, Rb and detectable levels of endogenous TRIP-Br1 (as assessed by Western blot analysis using a rabbit polyclonal anti-TRIP-Br1 antibody (Hsu, S. I. H., et al. EMBO J 20, 2273-2285 (2001)); data not shown). […]

E2F-regulated genes = experiment: Semi-quantitative RT-PCR of E2F-regulated genes in U2OS cells; format: cell-based, human; settings: 50 μM, 16 h
Procedure: Semi-quantitative RT-PCR. Total RNA was isolated from U2OS cells or U2OS-ER-E2F-1 cells (grown with or without 1.0 μM OHT and/or 10 μg/ml cycloheximide) using the TRIZOL® Reagent (Life Technologies). Total RNA (4 μg) was reverse transcribed using oligo-dT and M-MLV reverse transcriptase in a total reaction volume of 20 μl. Polymerase Chain Reactions (PCR) were carried out on 3 μl cDNA samples in the presence of […] deoxyribonucleotide triphosphates (dNTPs) and 40 μM of specific primer pairs in a total reaction volume of 50 μ. The cycling profile for PCR was as follow: 30 cycles of denaturation (94° C., 30 sec), annealing (51° C., 30 sec) and extension (72° C., 2 min), with a 2-minute initial denaturation step at 94° C. and a 10-minute terminal polishing step at 72° C. Sequences of gene-specific primers are available upon request. PCR amplification products were analyzed by agarose gel electrophoresis.
as §1

ERQIKIWFQNRRMKWKKGLDEDGLLLFCEGDTIAD (Peptide containing penetratin sequence from Drosophila and random peptide sequence) [*SCR, reference compound]
GAL4-KRIP-1/TRIP-Br complex formation (co-IP of TRIP-Br1 or TRIP-Br2) [1]: did not affect GAL4-KRIP-1/TRIP-Br complex formation | transcriptional activity of the minimal reporter [2]: slight activation | expression profile of the genes under investigation relative to vehicle (E2F-regulated genes; six E2F-regulated genes): negligible effects

ERQIKIWFQNRRMKWKKTGFLTDLTLDDILFADID (ERQIKIWFQNRRMKWKKTGFLTDLTLDDILFADID-NH2) [*Br2]
GAL4-KRIP-1/TRIP-Br complex formation (co-IP of TRIP-Br1 or TRIP-Br2) [1]: dramatically reduced the ability of GAL4-KRIP-1 to co-IP TRIP-Br1 or TRIP-Br2 | transcriptional activity of the minimal reporter [2]: did not alter the transcriptional activity of the minimal reporter significantly | DNA Polα mRNA expression level (E2F-regulated genes): down-regulated | cdc2 mRNA transcript level (E2F-regulated genes): significant down regulation | dhfr mRNA expression level (E2F-regulated genes): down-regulated | transcriptional activity of PCNA gene (E2F-regulated genes): unaffected | transcriptional activity of cyclin A2 gene (E2F-regulated genes): unaffected | transcriptional activity of cyclin-E gene (E2F-regulated genes): unaffected

ERQIKIWFQNRRMKWKKATGCLLDDGLEGLFEDID (ERQIKIWFQNRRMKWKKATGCLLDDGLEGLFEDID-NH2) [*Br1]
GAL4-KRIP-1/TRIP-Br complex formation (co-IP of TRIP-Br1 or TRIP-Br2) [1]: dramatically reduced the ability of GAL4-KRIP-1 to co-IP TRIP-Br1 or TRIP-Br2 | transcriptional activity of the minimal reporter [2]: slight activation | cdc2 mRNA transcript level (E2F-regulated genes): significant down regulation | transcriptional activity of PCNA gene (E2F-regulated genes): unaffected | transcriptional activity of cyclin A2 gene (E2F-regulated genes): unaffected | transcriptional activity of cyclin-E gene (E2F-regulated genes): unaffected
